The values below come from PMC10321483 (Chemical Science, 2023).

For the assay, the target named is T1, LdtMt2-ebselen complex (Mycobacterium tuberculosis, UniProt I6Y9J2).
T1 construct: made in house; host or cells: E. coli
T1 sequence (I6Y9J2 56-408, one chain of several): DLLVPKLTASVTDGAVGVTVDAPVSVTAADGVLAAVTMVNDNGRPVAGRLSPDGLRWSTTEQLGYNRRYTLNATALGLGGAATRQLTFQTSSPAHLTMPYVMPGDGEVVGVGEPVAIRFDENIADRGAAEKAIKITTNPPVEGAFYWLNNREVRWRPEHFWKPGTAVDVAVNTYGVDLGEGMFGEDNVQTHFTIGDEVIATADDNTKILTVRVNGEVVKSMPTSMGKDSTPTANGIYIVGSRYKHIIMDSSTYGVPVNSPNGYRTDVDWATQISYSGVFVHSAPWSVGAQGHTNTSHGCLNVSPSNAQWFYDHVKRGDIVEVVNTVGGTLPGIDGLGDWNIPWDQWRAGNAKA
Kind of assay: SPE-MS active-site selectivity assay with ebselen-preincubated LdtMt2. The assay is classed as binding. To be noted: inhibitor 100 µM, 24 h. Here is the method:
LdtMt2 contains only a single cysteine residue (Cys354). However, as several identified electrophiles are able to react with residues other than cysteine,[30,31] it was assessed whether covalent modification of LdtMt2 by the inhibitors is related to reaction with Cys354. […] Apparently complete LdtMt2 modification by a single molecule of ebselen (+274 Da) was observed. Inhibitors 1–21 were then added to the ebselen derived LdtMt2 complex (Fig. S11 ^†).
Figure S11. Protein observed SPE-MS based active -site selectivity assay s. LdtMt2 (1 µM) was 153 preincubated with ebselen (10 µM, a known Ldt Mt2 inhibitor3, which reacts with the nucleophilic 154 Cys354) for 1 h in 50 mM Tris, pH 7.5 , prior to addition of inhibitors 1-15 (100 µM). Samples were 155 analysed after an additional 24 h incubation at room temperature. The spectrum in blue corresponds 156 to LdtMt2 reacted with ebselen. The spectrum in green corresponds to LdtMt2 reacted with the specified 157 inhibitor, following preincubation with ebselen. The spectrum in purple corresponds to LdtMt2 reacted 158 with the specified inhibitor. Deconvoluted spectra, obtained using the maximum entropy algorithm in 159 the MassHunter Workstation Qualitative Analysis B.07.00 program (Agilent), are shown. 160
(1 picture or pasted object on this page, not shown here)
Turning to `CC(C)(C)OC(=O)Nc1ccc(N2C(=O)C=CC2=O)cc1` [Compound 6], the “reaction with the LdtMt2-ebselen complex (Cys354 unavailable)” value (“reaction with the LdtMt2-ebselen complex” for short) is recorded as “observed to react with the LdtMt2-ebselen complex”. Consider `CCOc1ccc(CN2C(=O)C(=O)c3cc(Br)cc(C)c32)cc1OC` [Compound 16], for which the “reaction with the LdtMt2-ebselen complex” value is listed as “observed to react with the LdtMt2-ebselen complex”.

On to `COc1ccc(CN2C(=O)C(=O)c3cc(Br)cc(C)c32)cc1OC` [Compound 17], for which the “reaction with the LdtMt2-ebselen complex” value is given as “observed to react with the LdtMt2-ebselen complex”.
